Laboratory results reported in article PMC9863607, “Combined Use of Antimicrobial Peptides with Antiseptics against Multidrug-Resistant Bacteria: Pros and Cons” (Pharmaceutics, 2023).
Values after ≈ are worked out from the molar mass of the structure shown. Read-outs that look alike come from different tables or passages of the source. Peptide text beside a SMILES is read from it.

Experiments:
[1] = tested on: P. aeruginosa MDR 522/17; experiment: microbe, parasite or virus in culture; type: cell-based, Pseudomonas aeruginosa
Procedure: (§1) In this regard the test plates were preincubated for 1 h at 37 °C with 0.1% bovine serum albumin (BSA) in distilled water before use. Bacteria were grown overnight at 37 °C with shaking in 2.1% Müller–Hinton broth (MHB), and then a small aliquot was transferred into the fresh portion of the same medium for another 2–3 h on the day of the experiment to provide us with the log phase bacterial suspension. Concentration of bacterial cells in suspension was evaluated based on absorbance at 620 nm and diluted down to 1 × 10^6 CFU/mL with MHB. Equal volumes of the prepared bacterial suspension in MHB and two-fold serial dilutions of the antimicrobials in 10 mM sodium phosphate (Na-P) buffer (pH 7.4) with 0.1% BSA were mixed and incubated overnight at 37 °C. The lowest concentration where no bacterial growth was observed the next day under visual examination was considered the minimal inhibitory concentration. The test was repeated at least three times, and the final MIC value was established as a median result. Each experiment was conducted in triplicates. Terasaki microplates (10 µL end volume, V-shaped bottom; Sarstedt, Nümbrecht, Germany) were used.

[2] = tested on: E. coli ML-35p; experiment: Broth microdilution assay (MIC, planktonic bacteria); type: cell-based, Escherichia coli; settings: antiseptics and surfactants, MHB, overnight 37 °C, median of 3–4 independent experiments, prontosan as polyhexanide
Procedure: as §1

[3] = tested on: normal human dermal fibroblasts; experiment: MTT test and/or direct cell count by light microscopy; settings: for FECI, toxicity toward fibroblasts: assessed from the ½+½ and ¼+¼ MEC combinations
Text: Potential cytotoxic effects of the test substances and their combinations toward human dermal fibroblasts were observed using a MTT dye [3-(4,5-dimethylthiazol-2-yl)-2,5-diphenyltetrazolium bromide]-based test first proposed by Mosmann. MTT basically functions on the same principle as resazurin: it is reduced in metabolically active cells to the product named formazan, which differs from MTT by its properties. While MTT is yellow, formazan is blue and water-insoluble. Normal human fibroblasts initially obtained from the Pokrovsky Stem Cell Bank (Saint Petersburg, Russia) were cultured at 37 °C and 5% CO2 in DMEM medium supplemented with 10% fetal bovine serum, glutamine, and Pen-Strep. The day before, experiment cells were detached from the culture flasks using Trypsin-Versene reagent, collected into a sterile 15 mL tube, centrifuged for 10 min at 300× g to discard the previous medium, and resuspended in serum-, glutamine-, and antibiotic-free DMEM. Cells were counted using a hemocytometer; their concentration was adjusted, and they were distributed at 10,000–15,000 cells per well in 90 µL in a 96-well sterile treated flat-bottom plate and left at 37 °C and 5% CO2 overnight to properly adhere. The following day, their well-being was visually checked using an inverted light microscope, and the wells were supplied with 10 µL of the test substances or their combinations in DMEM in 10 times the final desired concentrations. Experimental samples were made in triplicates. […] At least six repeats of each type of the control samples were made. Test plates were incubated at 37 °C and 5% CO2 overnight, and 10 µL of the 5 mg/mL MTT in PBS were introduced into each well the next morning. After another 4 h of incubation at the same conditions, formed formazan crystals were dissolved by adding 110 µL of isopropanol containing 0.04 M HCl (the latter is used to “switch” phenol red pH indicator in DMEM from red to yellow). Then, each sample was thoroughly mixed by repetitive pipetting, and formazan concentration was spectrophotometrically evaluated measuring OD at 540 nm with subtraction of the background at 690 nm.
We resorted to the direct cell count in case the MTT test was not applicable or required verification of some sort. This idea was borrowed from the crystal violet assay for determining viability of cultured cells and is based on the fact that, once dead, adherent cells detach from the surface. Since we were not aiming to analyze a large number of samples in this manner, we simply skipped the staining step of the crystal violet assay, which is also slightly difficult and brings a risk of detaching cells during washing. We proceeded with the same protocol as for the MTT test down to the step of adding MTT dye. Then, instead, we used an inverted light microscope (magnification ×500) to calculate the number of attached cells in 10 fields of view in each experimental well of interest and compared it with the count for the 100% viability control wells. The exact effect was evaluated as viable cells (%) = mean number of adhered cells in a sample / mean number of adhered cells in 100% viability control × 100%.
While analyzing toxicity toward eukaryotic cells, components were mixed in concentrations of ½ MEC (AMP) + ½ MEC (AS) (that can provide the fractional index = 1, denoting additivity, if found effective) and ¼ MEC (AMP) + ¼ MEC (AS) (that can provide the fractional index = 0.5, denoting synergy, if found effective).
Cytotoxic effects of individual substances and their combinations were also evaluated against cultured normal human dermal fibroblasts. We used MTT tests and/or light microscopy for the direct cell count.

[4] = tested on: P. aeruginosa MDR 522/17; experiment: Crystal violet assay of biofilm formation; type: cell-based, Pseudomonas aeruginosa; settings: median of 3 independent experiments; for MECBF partially inhibiting bacterial biofilms: minimal concentration with significant decrease vs intact control (Mann–Whitney, p < 0.05), 24 h, 37 °C, MHB; for Minimal FECI, AMP + CAPB, biofilm formation: combination with cocamidopropyl betaine; for Minimal FECI, AMP + CAPB, biofilm formation / Minimal FECI, AMP + DXD, biofilm formation / Minimal FECI, AMP + ETA, biofilm formation / Minimal FECI, AMP + PVG, biofilm formation / Minimal FECI, AMP + PTS, biofilm formation: sub-microbicidal concentrations; for Minimal FECI, AMP + DXD, biofilm formation: combination with dioxydin; for Minimal FECI, AMP + ETA, biofilm formation: combination with etidronic acid; for Minimal FECI, AMP + PVG, biofilm formation: combination with poviargolum; for Minimal FECI, AMP + PTS, biofilm formation: combination with prontosan
Procedure: The impact of the tested antimicrobials and their combinations on the formation of biofilms was quantitated as per the crystal violet assay protocol published by Merritt et al.. Testing was performed in 96-well immunological plates with U-shaped bottoms. […] Experimental samples were quadruplicated, and control without antimicrobials was octuplicated.
Then, the liquid content of the test plates was discarded, and the plates were gently washed in still water from residual traces of unattached planktonic bacteria. Each well was supplied with 125 μL 0.1% aqueous solution of crystal violet dye for 10 min at room temperature to stain biofilm components left attached to the surface. After staining, the plates were washed with clear water once more to remove excessive dye and left to air-dry. To quantify the amount of the bound dye corresponding to the thickness of the formed biofilm, it was redissolved in 30% acetic acid, 200 μL of which was introduced into each well. After 15 min at room temperature, the content of the wells was mixed by repetitive pipetting to ensure complete dye extraction, and 125 μL of each sample was transferred well-by-well into 96-well clear flat-bottom plates for spectrophotometric examination. OD was measured at 580 nm. Final results were calculated as medians based on three independent experiments.
Analyzing the combined action of AMPs and antiseptics (AS) in sub-microbicidal concentrations toward biofilms, we adopted the same approach based on the calculation of fractional indices as the one we used while testing antimicrobial activity on planktonic bacteria. For combinations, the series of concentrations from [MECBF(AMP) + MECBF(AS)], [½MECBF(AMP) + ½MECBF(AS)] and down to [1/32 × MECBF(AMP) + 1/32 × MECBF(AS)] was analyzed. […] The minimal FECI > 4 was interpreted as antagonism, FECI ≤ 0.5 as synergy, 0.5 < FECI ≤ 1 as additivity, and 1 < FECI ≤ 4 as independent action.

[5] = antiseptics and surfactants, MHB, overnight 37 °C, median of 3–4 independent experiments, prontosan as polyhexanide
[6] = antiseptics and surfactants, serum-free DMEM, overnight, median of 3 independent experiments, prontosan as polyhexanide, etidronic acid primarily by direct cell count

Row | Molecule | MIC [1, 5] | MECF of cytotoxic action toward normal human dermal fibroblasts [3, 6] | MECBF partially inhibiting bacterial biofilms [4] | MECF [3] | MIC ([1]; MDR 522/17, 1 h) | Minimal FECI, AMP + CAPB, biofilm formation [4] | Minimal FECI, AMP + DXD, biofilm formation [4] | Minimal FECI, AMP + ETA, biofilm formation [4] | Minimal FECI, AMP + PVG, biofilm formation [4] | Minimal FECI, AMP + PTS, biofilm formation [4] | other results
1 | Cocamidopropyl betaine | >50,000 µg/mL | 12.5 µg/mL | 1/512 |  |  |  |  |  |  |  | MIC [2]: >50,000 µg/mL
2 | CC(O)(P(=O)(O)O)P(=O)(O)O [Etidronic acid] |  | <2500 µg/mL | 1/32 | less than 2.5 mg/mL |  |  |  |  |  |  | MIC ([1]; Pseudomonas aeruginosa, MDR522/17, antiseptics and surfactants, MHB, overnight 37 °C, median of 3–4 independent experiments, prontosan as polyhexanide, read-out: MIC): 25 mg/mL; MIC ([2]; Escherichia coli, ML35P, read-out: MIC): 50 mg/mL (≈ 243 mM); Cytotoxic effect toward human dermal fibroblasts ([3]; at 2.5 mg/mL): higher than 50%
3 | [O-][n+]1c(CO)c(CO)[n+]([O-])c2ccccc21 [Dioxydin] | 0.125 mg/mL | 500 µg/mL | 1/16 | 0.5 mg/mL |  |  |  |  |  |  | 
4 | CC[C@H](C)[C@H](NC(=O)[C@H](CCCNC(=N)N)NC(=O)[C@@H](NC(=O)[C@@H]1CCCN1C(=O)[C@@H]1CCCN1C(=O)[C@H](CCCNC(=N)N)NC(=O)[C@H](CCCNC(=N)N)NC(=O)[C@H](Cc1ccccc1)NC(=O)[C@@H]1CCCN1C(=O)[C@H](CC(C)C)NC(=O)[C@H](CCCNC(=N)N)NC(=O)[C@H](Cc1ccccc1)NC(=O)[C@@H](N)CCCNC(=N)N)[C@@H](C)CC)C(=O)N[C@@H](Cc1c[nH]cn1)C(=O)N1CCC[C@H]1C(=O)N1CCC[C@H]1C(=O)N1CCC[C@H]1C(=O)N[C@@H](Cc1ccccc1)C(=O)N[C@@H](Cc1ccc(O)cc1)C(=O)N1CCC[C@H]1C(=O)N1CCC[C@H]1C(=O)N[C@@H](Cc1ccccc1)C(=O)N[C@@H](CCCNC(=N)N)C(=O)N[C@@H](CCCNC(=N)N)C(=O)N[C@@H](Cc1ccccc1)C(=O)N[C@@H](CC(C)C)C(=O)O [ChBac3.4] (H-RFRLPFRRPPIRIHPPPFYPPFRRFL-OH; N-terminus assumed) |  |  | 1/64 |  | 6.2 µM | 0.5 | 1.12 | 2 | 1 | 0.12 | MECF of cytotoxic action toward normal human dermal fibroblasts [3]: 40 µM
5 | CC(C)C[C@H](NC(=O)[C@H](CCCNC(=N)N)NC(=O)CNC(=O)CNC(=O)[C@@H](N)CCCNC(=N)N)C(=O)N[C@H]1CSSC[C@@H](C(=O)N[C@H](C(=O)NCC(=O)N[C@@H](CCCNC(=N)N)C(N)=O)C(C)C)NC(=O)[C@H](C(C)C)NC(=O)[C@@H]2CSSC[C@H](NC(=O)[C@H](Cc3ccc(O)cc3)NC1=O)C(=O)N[C@@H](CCCNC(=N)N)C(=O)N[C@@H](CCCNC(=N)N)C(=O)N[C@@H](CCCNC(=N)N)C(=O)N[C@@H](Cc1ccccc1)C(=O)N2 [PG-1, protegrin 1] |  |  | 1/64 |  | 6.2 µM | 0.12 | 1 | 2 | 0.25 | 0.12 | FECI, toxicity toward fibroblasts ([3]; B = cocamidopropyl betaine): 1.0; Toxicity of (¼ MEC A + ¼ MEC B) toward human dermal fibroblasts ([3]; B = cocamidopropyl betaine, experiment 1 of 3 (1st symbol)): +; Toxicity of (¼ MEC A + ¼ MEC B) toward human dermal fibroblasts ([3]; B = cocamidopropyl betaine, experiment 2 of 3 (2nd symbol)): −; Toxicity of (¼ MEC A + ¼ MEC B) toward human dermal fibroblasts ([3]; B = cocamidopropyl betaine, experiment 3 of 3 (3rd symbol)): −; Toxicity of (¼ MEC A + ¼ MEC B) toward human dermal fibroblasts ([3]; B = cocamidopropyl betaine, overall result of 3 independent experiments (square brackets)): −; FECI, toxicity toward fibroblasts ([3]; B = dioxydin): >1.0; FECI, toxicity toward fibroblasts ([3]; B = poviargolum): 1.0; Toxicity of (¼ MEC A + ¼ MEC B) toward human dermal fibroblasts ([3]; B = poviargolum, experiment 1 of 3 (1st symbol)): +; Toxicity of (¼ MEC A + ¼ MEC B) toward human dermal fibroblasts ([3]; B = poviargolum, experiment 2 of 3 (2nd symbol)): −; Toxicity of (¼ MEC A + ¼ MEC B) toward human dermal fibroblasts ([3]; B = poviargolum, experiment 3 of 3 (3rd symbol)): −; Toxicity of (¼ MEC A + ¼ MEC B) toward human dermal fibroblasts ([3]; B = poviargolum, overall result of 3 independent experiments (square brackets)): −; FECI, toxicity toward fibroblasts ([3]; B = prontosan): 1.0; Magnitude of toxic effect toward human dermal fibroblasts ([3]; at 20 μM): higher than 50%
